Assay results published in publication PMC8161486 (ACS Central Science, 2021).
“Also recorded” adds a separate entry of the source. Like-named read-outs stand apart in the source and are kept apart here.

Key:
ENL(YEATS)-HiBiT = ENL(YEATS)-HiBiT (Homo sapiens, UniProt Q03111); experiment: ENL; type: cell-based
ENL YEATS domain [1] = target: T1, ENL YEATS domain (Homo sapiens, UniProt Q03111); experiment: ENL-H3K27cr HTRF
T1 sequence (Q03111 1-148): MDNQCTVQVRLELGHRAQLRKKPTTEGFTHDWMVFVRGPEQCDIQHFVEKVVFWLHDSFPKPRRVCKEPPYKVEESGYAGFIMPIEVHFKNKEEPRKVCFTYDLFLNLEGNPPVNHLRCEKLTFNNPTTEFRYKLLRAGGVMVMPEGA

MV4;11 cells [2] = experiment: Cell cycle analysis; type: cell-based, human; conditions: MV4;11, 72 h
MOLM-13 = experiment: Cell proliferation assay; type: cell-based; conditions: MOLM-13 (MLL-AF9 AML), ∼2 weeks
[3] = target: YSK4 (also known as MAP3K19) (Homo sapiens, UniProt Q56UN5); experiment: KdELECT affinity determination of scanMAX hits; type: binding
MV4;11 cells [4] = experiment: Quant-seq 3′ mRNA sequencing in MV4; type: cell-based, human; conditions: MV4;11, 4 h
MV4;11 cells [5] = experiment: qRT-PCR transcript abundance in MV4; type: cell-based, human
786-O = experiment: Cell proliferation assay; type: cell-based; conditions: 786-O (renal cell carcinoma), 10 μM
MOLT-4 = experiment: Cell proliferation assay; type: cell-based; conditions: MOLT-4 (T-cell ALL), up to 10 μM
JURKAT = experiment: Cell proliferation assay; type: cell-based; conditions: JURKAT (T-cell ALL), ENL-insensitive
MV4;11 cells [6] = experiment: 72 h viability assay; type: cell-based, human; conditions: MV4;11, 72 h
MV4;11 = experiment: Cell proliferation assay; type: cell-based, human; conditions: MV4;11 (MLL-AF4 AML), ∼2 weeks
AF9 YEATS domain = AF9 YEATS domain (Homo sapiens, UniProt P42568); experiment: AF9 YEATS HTRF; type: binding
YEATS4 YEATS domain = YEATS4 YEATS domain (Homo sapiens, UniProt O95619); experiment: SPR, biotinylated YEATS4 YEATS; type: binding
ENL YEATS domain [7] = target: T1, ENL YEATS domain; conditions: 1 μM
468 kinases = experiment: KINOMEscan profiling; conditions: 10 μM, 468 kinases tested
YEATS2 YEATS domain = YEATS2 YEATS domain (Homo sapiens, UniProt Q9ULM3); experiment: Modified histone peptide array, YEATS2 YEATS; conditions: 10 and 50 μM
ENL [8] = target: T2, ENL (Homo sapiens, UniProt Q03111); experiment: ENL ChIP-qPCR / ChIP-seq in MV4
T2 sequence (Q03111 1-559): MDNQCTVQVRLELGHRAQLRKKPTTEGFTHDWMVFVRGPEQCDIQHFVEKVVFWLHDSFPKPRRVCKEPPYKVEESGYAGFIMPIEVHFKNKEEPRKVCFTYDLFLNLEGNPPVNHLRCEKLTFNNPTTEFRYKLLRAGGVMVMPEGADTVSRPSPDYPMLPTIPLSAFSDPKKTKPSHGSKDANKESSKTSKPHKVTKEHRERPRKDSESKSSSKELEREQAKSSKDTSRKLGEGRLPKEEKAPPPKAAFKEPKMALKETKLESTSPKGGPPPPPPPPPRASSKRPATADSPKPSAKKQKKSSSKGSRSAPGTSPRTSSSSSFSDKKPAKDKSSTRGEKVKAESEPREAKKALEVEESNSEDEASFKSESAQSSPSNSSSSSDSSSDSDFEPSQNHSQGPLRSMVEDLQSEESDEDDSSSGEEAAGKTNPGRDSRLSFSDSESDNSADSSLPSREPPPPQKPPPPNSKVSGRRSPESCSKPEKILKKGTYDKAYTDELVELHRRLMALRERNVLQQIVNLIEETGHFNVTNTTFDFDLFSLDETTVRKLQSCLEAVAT

BRD4 BD1 = BRD4 BD1 (Homo sapiens, UniProt O60885); experiment: BRD4 BD1 HTRF counter-screen; type: binding
32 bromodomains = experiment: BROMOscan profiling; conditions: 10 μM
AF9(YEATS)-HiBiT = AF9(YEATS)-HiBiT (Homo sapiens, UniProt P42568); experiment: AF9; type: cell-based
HB11;19 = experiment: Cell proliferation assay; type: cell-based; conditions: HB11;19 (MLL-ENL fusion), ∼2 weeks
OCI/AML-2 = experiment: Cell proliferation assay; type: cell-based; conditions: OCI/AML-2 (MLL-AF6 AML), ∼2 weeks
HL-60 = experiment: Cell proliferation assay; type: cell-based; conditions: HL-60 (MLL wild-type AML), ENL-insensitive
ENL [9] = target: T2, ENL; experiment: ENL degradation by immunoblot; type: cell-based; conditions: for DC50: read-out: ENL DC50, 4 h treatment
AF9 (V5) = AF9 (V5) (Homo sapiens, UniProt P42568); experiment: AF9-V5 degradation by immunoblot in MOLM-13 cells; type: cell-based; conditions: 4 h treatment
MV4;11 cells [10] = experiment: TMT-based whole proteome analysis of MV4; type: cell-based, human; conditions: 10 μM
[11] = ENL-H3K27cr HTRF IC50, purified compound

YEATS4 YEATS domain, sequence (O95619 13-158): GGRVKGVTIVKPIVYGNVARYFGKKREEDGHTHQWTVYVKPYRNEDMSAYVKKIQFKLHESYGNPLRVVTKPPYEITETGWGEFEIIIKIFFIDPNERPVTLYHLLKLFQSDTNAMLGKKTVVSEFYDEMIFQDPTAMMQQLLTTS
AF9 (V5), sequence (P42568 whole entry): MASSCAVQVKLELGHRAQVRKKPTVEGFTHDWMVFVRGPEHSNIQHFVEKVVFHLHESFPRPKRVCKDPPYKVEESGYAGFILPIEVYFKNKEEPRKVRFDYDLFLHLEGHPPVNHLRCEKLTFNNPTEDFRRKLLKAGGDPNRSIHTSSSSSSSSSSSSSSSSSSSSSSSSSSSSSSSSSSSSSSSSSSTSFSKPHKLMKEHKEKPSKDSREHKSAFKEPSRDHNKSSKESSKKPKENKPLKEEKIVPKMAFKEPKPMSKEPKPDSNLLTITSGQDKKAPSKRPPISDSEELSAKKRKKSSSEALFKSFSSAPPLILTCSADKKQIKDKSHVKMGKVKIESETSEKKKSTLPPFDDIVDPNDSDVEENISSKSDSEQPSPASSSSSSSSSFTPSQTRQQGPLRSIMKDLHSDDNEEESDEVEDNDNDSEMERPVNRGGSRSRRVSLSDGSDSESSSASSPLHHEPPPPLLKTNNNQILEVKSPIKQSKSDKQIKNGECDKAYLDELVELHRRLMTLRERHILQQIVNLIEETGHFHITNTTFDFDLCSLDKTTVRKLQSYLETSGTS
YSK4 (also known as MAP3K19), sequence (Q56UN5 whole entry): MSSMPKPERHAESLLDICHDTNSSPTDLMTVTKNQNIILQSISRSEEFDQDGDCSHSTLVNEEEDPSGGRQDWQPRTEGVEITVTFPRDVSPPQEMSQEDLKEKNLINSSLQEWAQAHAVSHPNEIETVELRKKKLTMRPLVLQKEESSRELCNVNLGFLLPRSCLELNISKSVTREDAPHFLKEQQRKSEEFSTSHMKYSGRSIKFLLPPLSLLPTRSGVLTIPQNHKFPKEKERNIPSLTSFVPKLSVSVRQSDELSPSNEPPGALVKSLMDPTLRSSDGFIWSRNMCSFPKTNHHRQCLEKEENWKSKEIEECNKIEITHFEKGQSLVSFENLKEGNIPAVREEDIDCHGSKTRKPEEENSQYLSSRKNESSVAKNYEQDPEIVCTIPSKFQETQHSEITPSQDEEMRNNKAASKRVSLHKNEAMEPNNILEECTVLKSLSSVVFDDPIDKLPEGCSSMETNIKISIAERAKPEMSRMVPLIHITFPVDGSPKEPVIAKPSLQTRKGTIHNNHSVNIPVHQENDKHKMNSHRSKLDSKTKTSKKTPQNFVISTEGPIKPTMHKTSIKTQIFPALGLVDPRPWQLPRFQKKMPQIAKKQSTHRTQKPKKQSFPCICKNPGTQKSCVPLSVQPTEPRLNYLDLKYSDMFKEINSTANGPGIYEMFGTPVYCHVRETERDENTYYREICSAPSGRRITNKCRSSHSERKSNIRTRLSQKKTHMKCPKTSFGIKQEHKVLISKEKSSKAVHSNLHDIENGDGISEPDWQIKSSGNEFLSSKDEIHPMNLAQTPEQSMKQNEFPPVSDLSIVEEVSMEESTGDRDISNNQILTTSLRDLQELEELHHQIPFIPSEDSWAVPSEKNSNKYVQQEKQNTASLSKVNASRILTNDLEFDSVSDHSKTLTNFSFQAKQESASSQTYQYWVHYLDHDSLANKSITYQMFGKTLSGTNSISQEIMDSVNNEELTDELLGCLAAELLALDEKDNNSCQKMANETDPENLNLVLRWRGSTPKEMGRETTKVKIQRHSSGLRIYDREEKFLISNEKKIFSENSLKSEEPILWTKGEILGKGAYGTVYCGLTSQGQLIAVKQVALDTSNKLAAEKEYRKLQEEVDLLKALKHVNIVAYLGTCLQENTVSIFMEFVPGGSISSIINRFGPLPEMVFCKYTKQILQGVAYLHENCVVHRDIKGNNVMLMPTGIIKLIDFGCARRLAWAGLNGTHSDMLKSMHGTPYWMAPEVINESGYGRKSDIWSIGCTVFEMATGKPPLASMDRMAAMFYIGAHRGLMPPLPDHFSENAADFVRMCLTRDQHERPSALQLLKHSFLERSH
YEATS2 YEATS domain, sequence (Q9ULM3 200-345 limits assumed): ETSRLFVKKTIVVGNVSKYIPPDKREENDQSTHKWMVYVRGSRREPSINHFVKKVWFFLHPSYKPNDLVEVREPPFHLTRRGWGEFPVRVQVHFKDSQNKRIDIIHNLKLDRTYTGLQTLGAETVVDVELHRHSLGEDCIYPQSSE
AF9 YEATS domain, sequence (P42568 1-138 limits assumed): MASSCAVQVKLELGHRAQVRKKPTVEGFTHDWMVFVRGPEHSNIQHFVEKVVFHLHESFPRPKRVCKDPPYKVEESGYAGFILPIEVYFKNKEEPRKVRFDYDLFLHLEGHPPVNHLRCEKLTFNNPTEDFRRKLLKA
AF9(YEATS)-HiBiT, sequence (P42568 1-138 limits assumed): as above

CC(C)NC(=O)c1ccc2nc(-c3cccc(NS(=O)(=O)NCCc4c[nH]cn4)c3)cn2c1 [compound 7]
EC50 (ENL(YEATS)-HiBiT): 1500 nM
IC50 (ENL YEATS domain [1]; ENL YEATS HTRF IC50, purified compound): 230 nM
IC50 (ENL YEATS domain [1]; [11]): 232 nM
improvement in potency compared to the initial screening hit (ENL YEATS domain [1]; HTRF IC50 ratio): 30 fold

O=C(NC1CCC1)c1ccc2nc(-c3cccc(NS(=O)(=O)NCCN4CCCCC4)c3)cn2c1 [SR-0813, N-Cyclobutyl-2-(3-((N-(2-(piperidin-1-yl)ethyl)sulfamoyl)amino)phenyl)imidazo[1,2-a]pyridine-6-carboxamide]
cell cycle distribution (MV4;11 cells [2]): decrease in the number of cells at the G2 stage of the cell cycle
effect on cell growth (MOLM-13): inhibited the growth
lower affinity for YSK4 than for ENL YEATS [3]: over 100 fold
expression of ENL target genes (3′ mRNA-seq) (MV4;11 cells [4]): strikingly selective suppression of ENL target genes
global gene expression (3′ mRNA-seq) (MV4;11 cells [4]): did not elicit global changes in gene expression
abundance of the ITGAM transcript (CD11b) (MV4;11 cells [5]; MV4;11): increased abundance
transcript abundance of HOXA9, MEIS1 and MYC (MV4;11 cells [5]; MV4;11, from 3 h to at least 3 days, 1 and 10 μM): downregulated
transcript abundance of HMGCR and HMGCS1 (SREBP targets, off-target effect) (MV4;11 cells [5]; MV4;11, most prominent at 10 μM): upregulation
effect on cell growth (786-O): neither the T-cell ALL cell line, MOLT-4, nor the renal cell carcinoma cell line, 786-O, were affected
effect on cell growth (MOLT-4): neither the T-cell ALL cell line, MOLT-4, nor the renal cell carcinoma cell line, 786-O, were affected
effect on cell growth (JURKAT): unaffected; also recorded: muted antiproliferative activity
effect on viability (MV4;11 cells [6]): minimal effects
effect on cell growth (MV4;11): inhibited the growth
IC50 (AF9 YEATS domain): 311 nM
binding to the YEATS4 YEATS domain by SPR (YEATS4 YEATS domain): virtually no binding
ENL recognition of acetyllysine on histone peptide arrays (ENL YEATS domain [7]): completely inhibited
number of kinases identified as potential off targets (KINOMEscan, scanMAX) (468 kinases): 4
YEATS2 recognition of acetyllysine on histone peptide arrays (YEATS2 YEATS domain): minimal effects
ENL ChIP-seq signal genome-wide (ENL [8]; MV4;11): bulk displacement of ENL from chromatin
ENL ChIP-qPCR enrichment at ENL binding sites (HOXA10 gene body, MYB promoter) (ENL [8]; MV4;11, 4 h): dose-dependent eviction of ENL
activity against BRD4 BD1 by HTRF (BRD4 BD1): inactive
bromodomain off targets (BROMOscan, bromoMAX) (32 bromodomains): not a single bromodomain off target was identified
EC50 (AF9(YEATS)-HiBiT): 76 nM
effect on cell growth (HB11;19): inhibited the growth
effect on cell growth (OCI/AML-2): inhibited the growth
effect on cell growth (HL-60): unaffected; also recorded: muted antiproliferative activity

O=C(COc1cccc2c1C(=O)N(C1CCC(=O)NC1=O)C2=O)NCCOCCOCCNS(=O)(=O)Nc1cccc(-c2cn3cc(C(=O)NC4CCC4)ccc3n2)c1 (stereo not drawn) [SR-1114, N-Cyclobutyl-2-(3-((N-(2-(2-(2-(2-((2-(2,6-dioxopiperidin-3-yl)-1,3-dioxoisoindolin-4-yl)oxy)acetamido)ethoxy)ethoxy)ethyl)sulfamoyl)amino)phenyl)imidazo[1,2-a]pyridine-6-carboxamide]
time ENL degradation is sustained by a single dose (ENL [9]; 10 μM): 24 h
time to maximal ENL degradation (ENL [9]; 10 μM, MV4;11 cells): ≤ 4 h
DC50 (ENL [9]; MOLM-13 cells): 311 nM
DC50 (ENL [9]; OCI/AML-2 cells): 1650 nM
degradation of exogenously expressed AF9-V5 (AF9 (V5)): degraded
off-target degradation of IKZF1 (MV4;11 cells [10]): weak off-target degradation
change in ENL abundance across the proteome (MV4;11 cells [10]; 4 and 16 h): strongest change in abundance across the proteome
abundance of ENL target genes (HOXA10, MYC, MYB, FLT3, ZEB2, SATB1) (MV4;11 cells [10]; 16 h): preferential suppression of multiple ENL target genes
abundance of myeloid differentiation marker CD11b (MV4;11 cells [10]; 16 h): increased the abundance

CC(C)N(C)C(=O)c1ccc2nc(-c3ccccc3)cn2c1 [compound 2, N-Isopropyl-N-methyl-2-phenylimidazo[1,2-a]pyridine-6-carboxamide]
EC50 (ENL(YEATS)-HiBiT): > 20000 nM
activity against ENL YEATS (ENL YEATS domain [1]): complete ablation of activity
IC50 (ENL YEATS domain [1]; [11]): > 50000 nM
